# According to patent publication US20060039955A1, “Animal feed compositions with enhanced histidine content” (Cargill, Incorporated, priority 2004, published 2006):
# Tests used:
# [1] = Poultry digestibility trial (intestinal digestibility of His and Lys sources); assay type: in vivo
# Experimental: This trial tested four different sources of AA for their intestinal digestibility. Crystalline His and Lys were coated with partially hydrogenated vegetable oil to test their digestibility as compared to His(HCl) and Lys(HCl), respectively. His(HCl) contains 74.3 wt. % His, whereas, the coated product contains 40 wt. % His. Lys(HCl) contains 78.8 wt. % Lys, whereas, the coated product contains 45 wt. % Lys. For this trial the test articles were added at low levels. The control diet was used as a blank to measure endogenous losses and to calculate the digestibility of His and Lys. The control diet was spiked with His or Lys by using either His(HCl) or Lys(HCl), respectively, (0.50% inclusion rate). This provided His and Lys at 0.372% and 0.394%, respectively. The coated His and Lys products were added to provide the same level of His or Lys as provided by the His(HCl) or Lys(HCl), respectively. The digestibility of His and Lys in the casein was determined and this effect was assessed in calculating the digestibility of the coated His and coated Lys. All test diets contained the same amount of casein (the only other source of His and Lys) as the control diet.
# [2] = set-up: species or system cows; details: cow, in vivo
# Experimental: Free Amino Acid degradation in vivo was determined using a technique that used cobalt (CoII) as a ruminal flow marker to follow the flow of Maillard-protected histidine (which had been reacted with lactose) out of the rumen. Maillard-protected histidine loss was evaluated relative to CoII outflow in fistulated cows. Free histidine or histidine modified by the Maillard Reaction Protocol were introduced into fistulated cows together with Cobalt II. After introducing the histidine or modified histidine into the cows, samples of rumen fluid periodically were withdrawn and the amount of histidine was determined using an O-phthaldialdehyde assay as described by Roth (1971), Anal. Chem. 43:880. The amount of CoII was determined using inductively coupled plasma emission spectroscopy. The amount of histidine related to CoII was plotted versus time to calculate a degradation coefficient (Kd) for free and protected histidine.
structure (smiles),measurement,setting,value
Cl.NCCCC[C@H](N)C(=O)O [Lysine HCL],App. Lys. Dig.,"[1]; apparent lysine digestibility, Lys at 0.394% of diet",97.3
same,True Lys Dig.,"[1]; true lysine digestibility, Lys at 0.394% of diet",99.6
Cl.N[C@@H](Cc1c[nH]cn1)C(=O)O [Histidine HCl],App. His Dig.,"[1]; apparent histidine digestibility, His at 0.372% of diet",99.3
same,True His. Dig.,"[1]; true histidine digestibility, His at 0.372% of diet",100.2
"N[C@@H](Cc1c[nH]cn1)C(=O)O [free histidine, histidine]",degradation coefficient (Kd),[2],0.000208 to 0.000264 s⁻¹
